# Source: patent publication US12029734B2, “Compositions and methods for treatment of symptoms in Parkinson's disease patients” (Tyler Medical Research, LLC, priority 2011, dated 2024)
# Where two headings read alike, the source gives them in different places.
# Experiments:
# [1] = cited from earlier work
# [2] = test system: patients with idiopathic PD and LIDS
# Text: A total of 65 patients with idiopathic PD and LIDS were enrolled in a phase II study. Major entry criteria were as follows: 1) Hoehn and Yahr Stage II-IV while in “on” state, 2) had moderately to severely disabling LIDS>25% of waking day as determined by a rating of >2 on each of Questions 32 and 33 of the Unified Parkinson's Disease Rating Scale (UPDRS), 3) be on stable doses of levodopa and other medicines for PD for >30 days, 4) have a negative screening urine test for cotinine, and 5) not be a smoker or previous smoker or regular exposure to second-hand smoke. The study consisted of 3 phases: a treatment period of 10 weeks, a 9-day drug taper period, and a 5-day follow-up period. Subjects were randomly assigned to receive either nicotine or placebo (pbo). Dosing began at 1 mg q6 hr and was escalated at 2-week intervals to 6 mg q6 hr (24 mg/day). All subjects were allowed to take ondansetron as rescue medication for the treatment of nausea and/or vomiting for the first 3 days of each dose escalation. Subjects were maintained on 24 mg/day for 4 weeks.
# Efficacy was assessed using the UPDRS (total of Parts II+III+IV), sum of Q32+Q33, Unified Dyskiensia Rating Scale (UDysRS) total scores and subscores, Lang-Fahn Dyskinesia Activities of Daily Living Scale (LF-ADL), physician and patient ratings of improvement from baseline in dyskinesias on 7-point CGI-C and PGI-C scales, and responder analyses (subjects with >25% improvement from baseline) on UDysRS total score and LF-ADL, and % subjects with any improvement on PGI-C and CGI-C.
# The safety population for all safety analyses consisted of all subjects who received at least 1 dose of nicotine or placebo.
# [3] = test system: patients with idiopathic PD and LIDS; remark: listed apart in the source
# Experimental: (§1) Safety was assessed by incidences of adverse experiences (AE), clinical laboratory tests, serum cotinine, ECG and vital signs. Impulsive symptoms were assessed using the Jay Modified Minnesota Impulsive Disorders Interview (JayMidi). Withdrawal symptoms were evaluated using the Minnesota Nicotine Withdrawal Scale (MNWS-R).
# [4] = test system: patients with idiopathic PD and LIDS; assay: Phase II clinical trial of nicotine: safety assessments (AEs, laboratory tests, serum cotinine, ECG, JayMidi, MNWS-R); conditions: human, in vivo
# Experimental: as §1
smiles,measurement,setting,value
"N[C@@H](Cc1ccc(O)c(O)c1)C(=O)O [Levodopa, L-3,4-dihydroxyphenylalanine (S)-2-amino-3-(3,4-dihydroxyphenyl)propanoic acid]",solubility in water,[1],slightly soluble in water
"CN1CCC[C@H]1c1cccnc1 [nicotine, 3-[(2S)-1-methylpyrrolidin-2-yl]pyridine]",UPDRS total scores,[2]; 10 weeks of treatment,"did not worsen, but improved"
same,number of UDysRS subscores improved (mean changes from baseline compared to pbo),[2]; Week 10 (FIG. 3),9 of 10
same,"UPDRS Part III score, maximum mean improvement","[2]; Week 10, change from baseline (FIG. 1)",2.0 points
same,LF-ADL responders (>25% improvement from baseline),"[2]; Week 10, p=0.04 versus pbo",56%
same,CGI-C pattern compared to pbo,[2]; after 10 weeks (FIG. 4),"similar, but not statistically significant pattern"
same,PGI-C: patients rating themselves as having any degree of improvement,"[2]; after 10 weeks, p=0.004 versus pbo (FIG. 4)",78%
same,efficacy on LIDS on the majority of patient- and physician-rated outcome measures,[2]; compared to pbo,trend or statistically significant improvement
same,UPDRS mean change from baseline to Week 10,"[2]; compared to placebo, every visit during drug treatment",numerical improvement
same,UDysRS total score,[2]; every study visit during the drug-treatment period (FIG. 2),Mean improvement from baseline and greater separation from pbo
same,PGI-C: distribution of subjects in each category compared to pbo,[2]; p=0.02,significant
same,ambulation (UDysRS subscore),"[2]; versus pbo, p=0.01",Statistically significant improvement
same,overall safety and tolerability,"[3]; PD patients with LIDS, oral, escalated from 1 mg q6 hr to 6 mg q6 hr (24 mg/day), 10 weeks",generally safe and well-tolerated
same,"withdrawal symptoms, MNWS-R score (maximal score 60)",[3]; Week 10 (end of drug treatment),7.5
same,relation of SAEs to study medication,[3]; all SAEs,unrelated to study medication
same,"withdrawal symptoms, MNWS-R score (maximal score 60)",[3]; end of the follow-up period,5.4
same,occurrences of impulsivity disorders (positive score on any JayMidi module),[3]; nicotine group,1 subject
same,overall incidence of serious AEs (SAE),[3]; nicotine group,4 subjects
same,percentage of subjects reporting treatment-related AEs,[3]; nicotine group,54%
same,subjects who used rescue medication (ondansetron),[3]; nicotine group,Twenty-nine
same,"treatment-emergent AE: constipation, subjects",[3]; nicotine group,11%
same,"treatment-emergent AE: dizziness, subjects",[3]; nicotine group,11%
same,"treatment-emergent AE: fatigue, subjects",[3]; nicotine group,9%
same,"treatment-emergent AE: nausea, subjects",[3]; nicotine group,31%
same,"treatment-emergent AE: nightmares, subjects",[3]; nicotine group,6%
same,"treatment-emergent AE: non-specific pain, subjects",[3]; nicotine group,9%
same,"treatment-emergent AE: vomiting, subjects",[3]; nicotine group,6%
same,subjects withdrawn due to treatment-related AEs,"[3]; nicotine group, n=35 randomized",6 subjects
same,subjects withdrawn due to treatment-related AEs,[3]; on 4 mg/day,1 subject
same,subjects withdrawn due to treatment-related AEs,[3]; on 8 mg/day,1 subject
same,subjects withdrawn due to treatment-related AEs,[3]; on 16 mg/day,2 subjects
same,subjects withdrawn due to treatment-related AEs,[3]; on 24 mg/day,2 subjects
same,serum cotinine levels,"[3]; patients treated with nicotine, dose escalation",increased with increasing dose
same,intensity of the majority of adverse events,[3]; transient in duration,mild or moderate in intensity
same,changes in ECG parameters,[4],no clinically relevant changes
same,"withdrawal symptoms as assessed by MNWS-R, clinical relevance",[4],not a clinically relevant issue
